Measured values: patent US8039481B2, “Tetrahydrofuran derivatives for use as inhibitors of matrix metalloproteinases” (Sanofi-Aventis, priority 2005, dated 2011)

Key:
[1] = molecular target: T1, catalytic domain of human collagenase-3 (MMP-13) (Homo sapiens, UniProt P45452); test: Enzymatic activity of the catalytic domain of human collagenase-3 (MMP-13), fluorogenic substrate; format: biochemical
T1 construct: Determination of the Enzymatic Activity of the Catalytic Domain of Human Collagenase-3 (MMP-13); purchased INVITEK, Berlin 30 100 803
Description: Determination of the Enzymatic Activity of the Catalytic Domain of Human Collagenase-3 (MMP-13)
Activation of the proenzyme: 2 parts by volume of proenzyme were incubated with 1 part by volume of APMA solution at 37° C. for 1.5 hours. The APMA solution was prepared from a 10 mmol/l p-aminophenylmercuric acetate solution in 0.1 mmol/l NaOH by dilution with 3 parts by volume of Tris/HCl buffer pH 7.5 (see below). The pH was adjusted to between 7.0 and 7.5 by adding 1 mmol/l HCl. After activation of the enzyme it was diluted with the Tris/HCl buffer to a concentration of 1.67 μg/ml.
(§1) The enzymic activity was measured by incubating 10 μl of enzyme solution with 10 μl of a 3% strength (v/v) buffered dimethyl sulfoxide solution (reaction 1) for 15 minutes. The enzyme inhibitor activity was measured by incubating 10 μl of enzyme solution with 10 μl of a 3% strength (v/v) buffered dimethyl sulfoxide solution which contained the enzyme inhibitor (reaction 2).
(§2) The enzymic reaction both in the case of reaction 1 and in the case of reaction 2 was followed after addition of 10 μl of a 3% strength (v/v) aqueous dimethyl sulfoxide solution which contained 0.075 mmol/l of the substrate by fluorescence spectroscopy (328 nm (extinction)/393 nm (emission)).
The enzymic activity has been presented as increase in extinction/minute. The effect of the inhibitor was calculated as percentage inhibition by the following formula: % inhibition=100−[(increase in extinction/minute in reaction 2)/(increase in extinction/minute in reaction 1)×100].
The IC50, which is the concentration of inhibitor which is necessary for 50% inhibition of the enzymic activity, was determined graphically by plotting the percentage inhibitions at various inhibitor concentrations.
The buffer solution contained 0.05% Brij (Sigma, Deisenhofen, Germany) and 0.1 mol/l Tris/HCl, 0.1 mol/l NaCl, 0.01 mol/l CaCl2 (pH=7.5). The enzyme solution contained 1.67 μg/ml of the enzyme domain. The substrate solution contained 0.075 mmol/l of the fluorogenic substrate (7-methoxycoumarin-4-yl)acetyl-Pro-Leu-Gly-Leu-3-(2′,4′-dinitrophenyl)-L-2,3-diaminopropionyl-Ala-Arg-NH2 (Bachem, Heidelberg, Germany).

[2] = molecular target: T2, catalytic domain of human collagenase-1 (MMP-1) (Homo sapiens, UniProt P03956); test: Enzymatic activity of the catalytic domain of human collagenase-1 (MMP-1), fluorogenic substrate; format: biochemical
T2 construct: Determination of the Enzymatic Activity of the Catalytic Domain of Human Collagenase-1 (MMP-1); purchased Biocol, Potsdam MMP1
T2 sequence (P03956 100-269 limits assumed): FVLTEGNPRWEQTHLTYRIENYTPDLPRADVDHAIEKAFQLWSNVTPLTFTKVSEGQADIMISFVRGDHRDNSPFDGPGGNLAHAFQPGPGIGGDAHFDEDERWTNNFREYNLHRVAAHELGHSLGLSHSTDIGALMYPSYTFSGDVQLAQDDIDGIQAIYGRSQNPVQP
Description: Determination of the Enzymatic Activity of the Catalytic Domain of Human Collagenase-1 (MMP-1)
Activation of the proenzyme: 2 parts by volume of proenzyme are incubated with 1 part by volume of APMA solution at 37° C. for 1 hour. The APMA solution is prepared from a 10 mmol/l p-aminophenylmercuric acetate solution in 0.1 mmol/l NaOH by dilution with 3 parts by volume of tris/HCl buffer pH7.5 (see below). The pH is adjusted to between 7.0 and 7.5 by adding 1 mmol/l HCl. After activation of the enzyme, it is diluted with the tris/HCl buffer to a concentration of 2.5 μg/ml.
as §1, with “is” for “was”, “contains” for “contained”
as §2, with “is” for “was”, “contains 0.3” for “contained 0.075”, “(emission)), and the enzymic activity is presented as increase in extinction per minute.” for “(emission)).”
The effect of the inhibitor is calculated as percentage inhibition by the following formula: % inhibition=100−[(increase in extinction/minute in reaction 2)/(increase in extinction/minute in reaction 1)×100].
The IC50, i.e. the inhibitor concentration necessary for 50% inhibition of the enzymic activity, is determined graphically by plotting the percentage inhibitions at various inhibitor concentrations.
The buffer solution contains 0.05% Brij (Sigma, Deisenhofen, Germany) and 0.1 mol/l tris/HCl, 0.1 mol/l NaCl, 0.01 mol/l CaCl2 (pH=7.5). The enzyme solution contains 2.5 μg/ml of the enzyme domain.
The substrate solution contains 0.3 mmol/l of the fluorogenic substrate (7-methoxycoumarin-4-yl)acetyl-Pro-Leu-Gly-Leu-3-(2′,4′-dinitrophenyl)-L-2,3-diaminopropionyl-Ala-Arg-NH2 (Bachem, Heidelberg, Germany).

Structure (SMILES)	IC50 [1] [nM]	IC50 [2] [nM]
O=C(O)C1C2CCOC2CCN1S(=O)(=O)c1ccc(-c2ccc(Cl)cc2)cc1 (stereo not shown) [Example 6, 5-(4′-chlorobiphenyl-4-sulfonyl)octahydrofuro[3,2-c]pyridine-4-carboxylic acid]	290	> 10000
O=C(NO)C1C2CCOC2CCN1S(=O)(=O)c1ccc(-c2ccc(Cl)cc2)cc1 (stereo not shown) [Example 7, 5-(4′-chlorobiphenyl-4-sulfonyl)octahydrofuro[3,2-c]pyridine-4-(N-hydroxy)-carboxamide]	1.8	29
O=C(NO)[C@H]1[C@H]2CCO[C@H]2CCN1S(=O)(=O)c1ccc(-c2ccc(Cl)cc2)cc1 [Example 8]	1	14
O=C(NO)[C@@H]1[C@@H]2CCO[C@@H]2CCN1S(=O)(=O)c1ccc(-c2ccc(Cl)cc2)cc1 [Example 9]	58	4100
O=C(O)C1C2CCOC2CCN1S(=O)(=O)c1ccc(Oc2ccc(F)cc2)cc1 (stereo not shown) [Example 10, 5-[4-(4-fluorophenoxy)benzenesulfonyl]octahydrofuro[3,2-c]pyridine-4-carboxylic acid]	520	> 10000
O=C(NO)C1C2CCOC2CCN1S(=O)(=O)c1ccc(Oc2ccc(F)cc2)cc1 (stereo not shown) [Example 11, 5-[4-(4-fluorophenoxy)benzenesulfonyl]octahydrofuro[3,2-c]pyridine-4-(N-hydroxy)-carboxamide]	2	39
O=C(NO)[C@H]1[C@H]2CCO[C@H]2CCN1S(=O)(=O)c1ccc(Oc2ccc(F)cc2)cc1 [Example 12]	0.7	10
O=C(NO)[C@@H]1[C@@H]2CCO[C@@H]2CCN1S(=O)(=O)c1ccc(Oc2ccc(F)cc2)cc1 [Example 13]	63	1400
O=C(NO)C1C2CCOC2CCN1S(=O)(=O)c1ccc(Oc2ccc(Cl)cc2)cc1 (stereo not shown) [Example 18, 5-[4-(4-chlorophenoxy)benzenesulfonyl]octahydrofuro[3,2-c]pyridine-4-(N-hydroxy)-carboxamide]	1	43
N#Cc1ccc(Oc2ccc(S(=O)(=O)N3CC[C@@H]4OCC[C@@H]4[C@@H]3C(=O)NO)cc2)cc1 [Example 21]	1	59
CS(=O)(=O)c1ccc(Oc2ccc(S(=O)(=O)N3CC[C@@H]4OCC[C@@H]4[C@@H]3C(=O)NO)cc2)cc1 [Example 23]	1	640
